Experimental data: patent publication US20210000986A1, “INCLUSION COMPLEXES SUITABLE FOR USE AS A HISTOTRIPSY AGENT” (T.C ISTANBUL MEDIPOL ÜNIVERSITESI, priority 2018, published 2021)

Columns and labels:
[1] = Dynamic light scattering (DLS) size testing; assay type: physicochemical
Excerpt: The size of the complex plays an important role in determining the threshold for histotripsy. Small size particles are more easily injected and they accumulate highly in tumor tissue. […] The results obtained in the DLS tests are shown as a graph in FIG. 2. Herein BCD is beta-cyclodextrin; MBCD is methylated beta-cyclodextrin and MIC refers to the inclusion complex of methylated beta-cyclodextrin and perfluorohexane.

kidney HEK-293T cells = assay type: cell-based
Procedure: The cell viability test is important to determine how the methylated beta-cyclodextrin perfluorohexane inclusion complex interacts with cells in the body.
Inclusion complexes according to the invention were tested using kidney HEK-293T cells from the reticulo-endothelial system organs responsible for cleansing blood in the body and removing various particles and antigens from blood flow and forming inflammatory mediators against immunological stimuli.
For this purpose, beta-cyclodextrin (BCD), methylated beta-cyclodextrin (MCD) and methylated beta-cyclodextrin and perfluorohexane inclusion complex (MIC) solutions at a concentration of 0.1 mg/mL, 0.5 mg/mL and 1 mg/mL were prepared. In addition, perfluorohexane (PFH) at amounts of 0.1 μL, 0.13 μL, 0.15 μL were also tested on the same cells. The amount of perfluorohexane tested was based on the amount of perfluorohexane in 1 mg/mL MIC. It was determined that in 1 mg/mL MIC there is 0.15 μL of perfluorohexane.

Molecule	size (DLS) [1] [nm]	toxicity (conclusion from cell viability) (kidney HEK-293T cells)	cell viability (kidney HEK-293T cells; human, 0.15 μL) [%]
OC[C@H]1O[C@@H]2O[C@H]3[C@H](O)[C@@H](O)[C@@H](O[C@H]4[C@H](O)[C@@H](O)[C@@H](O[C@H]5[C@H](O)[C@@H](O)[C@@H](O[C@H]6[C@H](O)[C@@H](O)[C@@H](O[C@H]7[C@H](O)[C@@H](O)[C@@H](O[C@H]8[C@H](O)[C@@H](O)[C@@H](O[C@H]1[C@H](O)[C@H]2O)O[C@@H]8CO)O[C@@H]7CO)O[C@@H]6CO)O[C@@H]5CO)O[C@@H]4CO)O[C@@H]3CO [beta-cyclodextrin]	16.42	–	–
FC(F)(F)C(F)(F)C(F)(F)C(F)(F)C(F)(F)C(F)(F)F [perfluorohexane]	–	not toxic	89
methylated beta-cyclodextrin	19.55	–	–
